Laboratory results as given in ChEMBL document CHEMBL3774340, “Structure-Guided Design of IACS-9571, a Selective High-Affinity Dual TRIM24-BRPF1 Bromodomain Inhibitor” (J Med Chem, 2016).
Converted amounts (≈) assume the structure as drawn.

Legend:
[1] = target: T1, Transcription intermediary factor 1-alpha (Homo sapiens, UniProt O15164); experiment: Inhibition of recombinant human His-tagged TRIM24-PHD/bromodomain expressed in Escherichia coli strains BL21 (DE3) cells using biotinylated H3K23ac (1 to 33 residues) peptide after 1 hr by AlphaScreen assay
T1 sequence (O15164 whole entry): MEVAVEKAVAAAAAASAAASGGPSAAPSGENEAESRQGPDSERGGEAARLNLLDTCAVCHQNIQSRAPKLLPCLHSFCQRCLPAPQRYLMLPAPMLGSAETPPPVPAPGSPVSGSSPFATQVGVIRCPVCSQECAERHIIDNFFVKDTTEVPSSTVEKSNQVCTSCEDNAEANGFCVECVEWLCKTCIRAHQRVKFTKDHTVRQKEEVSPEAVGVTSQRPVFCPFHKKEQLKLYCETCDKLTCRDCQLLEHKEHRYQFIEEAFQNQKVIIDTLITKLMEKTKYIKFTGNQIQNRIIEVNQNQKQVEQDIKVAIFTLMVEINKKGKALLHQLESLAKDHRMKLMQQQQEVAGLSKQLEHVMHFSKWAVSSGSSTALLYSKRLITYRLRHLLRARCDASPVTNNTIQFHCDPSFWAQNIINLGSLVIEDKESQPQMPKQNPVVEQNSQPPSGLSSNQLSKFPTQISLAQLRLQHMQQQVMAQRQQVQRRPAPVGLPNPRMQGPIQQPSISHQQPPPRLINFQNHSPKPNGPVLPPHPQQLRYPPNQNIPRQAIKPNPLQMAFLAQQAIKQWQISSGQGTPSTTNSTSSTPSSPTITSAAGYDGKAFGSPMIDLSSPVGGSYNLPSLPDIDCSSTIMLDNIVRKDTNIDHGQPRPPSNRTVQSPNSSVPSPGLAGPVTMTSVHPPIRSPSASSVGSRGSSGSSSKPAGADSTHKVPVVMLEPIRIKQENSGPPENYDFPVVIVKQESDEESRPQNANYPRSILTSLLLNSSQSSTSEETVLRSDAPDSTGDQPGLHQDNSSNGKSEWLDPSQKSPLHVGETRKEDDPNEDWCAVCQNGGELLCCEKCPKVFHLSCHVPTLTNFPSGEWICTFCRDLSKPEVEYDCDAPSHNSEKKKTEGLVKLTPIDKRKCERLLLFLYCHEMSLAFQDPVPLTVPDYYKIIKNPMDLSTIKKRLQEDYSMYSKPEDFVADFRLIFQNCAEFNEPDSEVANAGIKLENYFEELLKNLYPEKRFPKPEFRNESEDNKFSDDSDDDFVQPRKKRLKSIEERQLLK

[2] = target: T1, Transcription intermediary factor 1-alpha; experiment: Inhibition of Flag-tagged TRIM24-PHD/bromodomain (unknown origin) expressed in human HeLa cells for 2 hrs by AlphaLisa assay; format: cell-based
[3] = Kinetic solubility of compound in phosphate buffer at pH 7
[4] = Clearance in CD1 mouse at 1 mg/kg, iv; format: ADME, organism-based; conditions: in vivo
[5] = Oral bioavailability in CD1 mouse at 10 mg/kg; format: ADME, organism-based; conditions: in vivo
[6] = Terminal half life in CD1 mouse at 1 mg/kg, iv; format: ADME, organism-based; conditions: in vivo, read-out: beta t1/2 (converted)
[7] = Apparent permeability from apical to basolateral side in human Caco2 cells; conditions: Caco-2

IC50 [1] [nM]	EC50 [2] [nM]	solubility kinetic [3] [µM]	SMILES	also measured
10000			COc1cc2c(cc1NS(=O)(=O)c1cccc(C#N)c1)n(C)c(=O)n2C	
23000			Cn1c(=O)n(C)c2cc(NS(=O)(=O)c3ccccc3)ccc21	
1500			COc1ccc(Oc2cc3c(cc2NS(=O)(=O)c2ccccc2)n(C)c(=O)n3C)cc1	
2800			CN1C(=O)CCc2cc(NS(=O)(=O)c3ccc(C4CCCCC4)cc3)ccc21	
160	3000		CCCCOc1cccc(Oc2cc3c(cc2NS(=O)(=O)c2cn(C)c(C)n2)n(C)c(=O)n3C)c1	
57		87 (≈ 43.5 µg/mL)	Cc1nc(S(=O)(=O)Nc2cc3c(cc2Oc2cccc(OCC(C)C)c2)n(C)c(=O)n3C)cn1C	
130	2700	100 (≈ 51.6 µg/mL)	COCCCOc1cccc(Oc2cc3c(cc2NS(=O)(=O)c2cn(C)c(C)n2)n(C)c(=O)n3C)c1	
13	120		CCCOc1cc(OCCCN)cc(Oc2cc3c(cc2NS(=O)(=O)c2ccc(OC)c(OC)c2)n(C)c(=O)n3C)c1	
		76 (≈ 48.9 µg/mL)	CCCOc1cc(OCCCCN(C)C)cc(Oc2cc3c(cc2NS(=O)(=O)c2ccc(OC)c(OC)c2)n(C)c(=O)n3C)c1	clearance [4]: 43 mL/min/kg; bioavailability [5]: 29%; half-life [6]: 42 min
2000	> 33000		Cn1cnc(S(=O)(=O)Nc2cc3c(cc2Oc2ccc(OCc4ccccc4)cc2)n(C)c(=O)n3C)c1	
160	5500		CCCOc1cc(OCCCCCCNC(=O)OC(C)(C)C)cc(Oc2cc3c(cc2NS(=O)(=O)c2cn(C)cn2)n(C)c(=O)n3C)c1	
4900			CSc1ccc(S(=O)(=O)Nc2ccc3c(c2)n(C)c(=O)n3C)cc1	
180	2300	74 (≈ 34.9 µg/mL)	CCOc1cccc(Oc2cc3c(cc2NS(=O)(=O)c2cn(C)c(C)n2)n(C)c(=O)n3C)c1	
3700			CC(C)COc1ccc(S(=O)(=O)Nc2ccc3c(c2)CCC(=O)N3C)cc1	
13	170		CCCOc1cc(OCCCCCCN)cc(Oc2cc3c(cc2NS(=O)(=O)c2ccc(OC)c(OC)c2)n(C)c(=O)n3C)c1	
60	1800		CCCOc1cc(OCCCCCCO)cc(Oc2cc3c(cc2NS(=O)(=O)c2cn(C)cn2)n(C)c(=O)n3C)c1	
4000			CC(C)COc1ccc(S(=O)(=O)Nc2ccc3c(c2)n(C)c(=O)n3C)cc1	
270	3200	66 (≈ 38.6 µg/mL)	COc1ccc(S(=O)(=O)Nc2cc3c(cc2Oc2cccc(OCCCCN(C)C)c2)n(C)c(=O)n3C)cc1OC	

IC50 [1] [nM]	EC50 [2] [nM]	solubility kinetic [3] [µM]	SMILES	also measured
8.3	59	42 (≈ 25.8 µg/mL)	CCCOc1cc(OCCCCN)cc(Oc2cc3c(cc2NS(=O)(=O)c2ccc(OC)c(OC)c2)n(C)c(=O)n3C)c1	
17000			CSc1ccc(S(=O)(=O)Nc2ccc3c(c2)CC(=O)N3C)cc1	
53	950	62 (≈ 30.1 µg/mL)	CCCOc1cccc(Oc2cc3c(cc2NS(=O)(=O)c2cn(C)c(C)n2)n(C)c(=O)n3C)c1	
110	5000	0.78 (≈ 0.348 µg/mL)	CC(C)COc1cccc(Oc2cc3c(cc2NS(=O)(=O)C2CC2)n(C)c(=O)n3C)c1	
7.9	120		CCCOc1cc(OCCCCN)cc(Oc2cc3c(cc2NS(=O)(=O)c2cn(C)cn2)n(C)c(=O)n3C)c1	
140	3900	0.6 (≈ 0.345 µg/mL)	COc1ccc(S(=O)(=O)Nc2cc3c(cc2Oc2cccc(OCc4ccccc4)c2)n(C)c(=O)n3C)cc1OC	Papp A→B [7]: 21 ×10⁻⁶ cm/s
1700			Cn1c(=O)n(C)c2cc(NS(=O)(=O)c3ccc(C4CCCCC4)cc3)ccc21	
36000			COc1cc2c(cc1NS(=O)(=O)c1ccccc1)CCC(=O)N2C	
11	110		CCCOc1cc(OCCCCCN)cc(Oc2cc3c(cc2NS(=O)(=O)c2cn(C)cn2)n(C)c(=O)n3C)c1	
2500			COc1ccc(S(=O)(=O)Nc2ccc3c(c2)CCC(=O)N3C)c(OC)c1	
14000			CSc1ccc(S(=O)(=O)Nc2ccc3c(c2)N(C)C(=O)CC3)cc1	
270	4900		Cc1nc(S(=O)(=O)Nc2cc3c(cc2Oc2cccc(OCc4ccccc4)c2)n(C)c(=O)n3C)cn1C	
2400	> 36000	2.6 (≈ 0.849 µg/mL)	CC(C)COc1cccc(Oc2ccc3c(c2)n(C)c(=O)n3C)c1	
100	1900	77 (≈ 39.5 µg/mL)	Cn1cnc(S(=O)(=O)Nc2cc3c(cc2Oc2cccc(OCC4CCOC4)c2)n(C)c(=O)n3C)c1 (configuration not stated)	
4800			CSc1ccc(S(=O)(=O)Nc2ccc3c(c2)CCC(=O)N3C)cc1	
43	830	1.1 (≈ 0.58 µg/mL)	CCCOc1cccc(Oc2cc3c(cc2NS(=O)(=O)c2ccc(OC)c(OC)c2)n(C)c(=O)n3C)c1	
10	170		CCCOc1cc(OCCCCCCN)cc(Oc2cc3c(cc2NS(=O)(=O)c2cn(C)cn2)n(C)c(=O)n3C)c1	

SMILES	IC50 [1] [nM]	EC50 [2] [nM]	solubility kinetic [3] [µM]	also measured
COc1ccc(S(=O)(=O)Nc2ccc3c(c2)n(C)c(=O)n3C)cc1	9300			
Cc1nc(-c2ccc3c(c2)CC(=O)N3C)cs1	8500			
